What was measured:
IL-17A : IL-17RA binding [1] = target: T1, IL-17A : IL-17RA binding (Homo sapiens, UniProt Q16552, K93Q); test: IL-17A(FLAG-tagged):IL-17RA(His-tagged) binding disruption Eu-HTRF assay, Protocol 2; conditions: FLAG-IL-17A 1 nM at 2x final concentration; average if tested more than once
T1 construct: Name: IL-17A-Flag
Text: An antibody directed against the FLAG tag of IL-17A (SEQ ID NO: 1) is labeled with the HTRF donor chromophore (Europium-cryptate). IL-17A is present as a dimer that is “locked into” this quaternary structure due to the formation of loop-spanning […] disulfide bridges. The construct of IL-17RA used in the assay excludes the […] portion of the receptor and is fused to a C-terminal 10×His tag (SEQ ID NO:2). An antibody directed against the His tag of the IL-17RA chimera is labeled with the HTRF acceptor chromophore (“D2”). The fluorescence-resonance energy transfer (FRET) depends on the vicinity of the donor chromophore to the acceptor, and interruption of the binding between the IL-17A and IL-17RA causes the reduction/loss of FRET. Therefore, this assay allows to evaluate the compound effect on the binding IL-17A and IL-17RA by monitoring the fluorescence intensity of donor vs acceptor. The assay was run using either Protocol 1 or Protocol 2 as described below.
Protocol 2. 40 nl of 2-fold serial diluted compound solution for total 22 dilution points is added into each well of a 1536-well, white, low-volume, non-binding plate (Greiner #782904), then 2 μl of FLAG tagged IL-17A at 2× final concentration (1 nM) in solution of PBS+0.01% Triton-X100 is added to each well. The assay plate is briefly centrifuged then incubated for 1 h at rt. A mixed solution is prepared containing 2×5 nM 10HIS×IL-17RA, 2×2.5 nM Eu-anti-FLAG (CISBIO), 2×5 nM D2-anti-HIS (CISBIO) in PBS+0.01% Triton-X100+200 mM Potassium Fluoride (Sigma 60238) and 2 μl of mix is added to each well of the assay plate. The plate is briefly centrifuged then incubated for 2 h at rt. The HTRF intensities at the wavelength of donor (615 nm) and acceptor (665 nm) are measured using BMG Pherastar. The ratio between intensities at two wavelengths is calculated and plotted against the compound concentration and the data is fitted to a one-site competition model to yield IC50 of the compound.

[2] = tested on: IL-17A-induced G-CSF production in human normal keratinocyte (NHK); test: NHK assay: IL-17A-induced G-CSF production in normal human keratinocytes; format: cell-based; conditions: 24 h, IL-17A 5 ng/mL, average if tested more than once
In short: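 IC50 derives from G-CSF in supernatants, quantified by HTRF from a standard curve, with CellTiter-Glo viability compared to DMSO control. Before a 24 h, 37°C culture of normal human keratinocytes at 3000–4000 cells/well, compound dilutions were preincubated 1 h at rt with human IL-17A (5 ng/mL final), with 0.2% DMSO and 5% FBS.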

IL-17A : IL-17RA binding [3] = target: T1, IL-17A : IL-17RA binding; test: IL-17A(FLAG-tagged):IL-17RA(His-tagged) binding disruption Eu-HTRF assay, Protocol 1; conditions: FLAG-IL-17A 2.5 nM at 2x final concentration; average if tested more than once
In short: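 IC50 came from a one-site competition fit of the acceptor/donor (665/620 nm) HTRF ratio. His-tagged IL-17RA, Eu-anti-FLAG and D2-anti-His were added after a 1 h rt compound preincubation with FLAG-tagged IL-17A dimer in PBS/0.01% Triton X-100, followed by 2 h at rt before reading.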

T1 sequence (Q16552 with tags, fused parts or gaps K93Q): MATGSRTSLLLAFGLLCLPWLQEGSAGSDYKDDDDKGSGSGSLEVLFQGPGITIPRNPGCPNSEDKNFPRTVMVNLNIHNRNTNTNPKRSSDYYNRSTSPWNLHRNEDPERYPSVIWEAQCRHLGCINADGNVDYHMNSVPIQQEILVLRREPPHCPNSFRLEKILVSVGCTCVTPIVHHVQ

SMILES | IC50 (IL-17A : IL-17RA binding [1]) [nM] | IC50 ([2]; Homo sapiens, Keratinocyte) [nM] | IC50 (IL-17A : IL-17RA binding [3]) [nM] | IC50 [2] [nM]
C[C@@H](NC(=O)CC1CC(F)(F)C1)c1ccc2nc(C(COC(C)(C)C(F)(F)F)NC(=O)c3nonc3C3CC3)[nH]c2c1 (single isomer, unassigned) [Example 152, 4-Cyclopropyl-N—((R*)-1-(6-((R)-1-(2-(3,3-difluorocyclobutyl)acetamido)ethyl)-1H-benzo[d]imidazol-2-yl)-2-((1,1,1-trifluoro-2-methylpropan-2-yl)oxy)ethyl)-1,2,5-oxadiazole-3-carboxamide] | < 50 | < 50 | < 50 | –
Cc1nonc1C(=O)N[C@@H](CO[C@@H](C)C(F)(F)F)c1nc2ccc([C@H](NC(=O)CC3CC(F)(F)C3)C3CC3)cc2[nH]1 (relative stereo) [Example 151, N—((R*)-1-(6-((R)-Cyclopropyl(2-(3,3-difluorocyclobutyl)acetamido)methyl)-1H-benzo[d]imidazol-2-yl)-2-(((S*)-1,1,1-trifluoropropan-2-yl)oxy)ethyl)-4-methyl-1,2,5-oxadiazole-3-carboxamide] | 50 to 100 | > 100 | < 50 | –
Cc1nonc1C(=O)N[C@H](c1nc2cc([C@@H](COC3CC3)NC(=O)C[C@H]3CC3(F)F)ccc2[nH]1)[C@@H](C)OC(C)(C)C(F)(F)F [Example 270, N-((1R,2R)-1-(5-((S)-2-Cyclopropoxy-1-(2-((S)-2,2-difluorocyclopropyl)acetamido)ethyl)-1H-benzo[d]imidazol-2-yl)-2-((1,1,1-trifluoro-2-methylpropan-2-yl)oxy)propyl)-4-methyl-1,2,5-oxadiazole-3-carboxamide] | 50 to 100 | 50 to 100 | – | –
CC(C)n1nccc1C(=O)N[C@H](c1nc2ccc([C@@H](C)NC(=O)CCC(F)(F)F)cc2[nH]1)C1CCC(F)(F)CC1 [Example 122, N—((S)-(4,4-Difluorocyclohexyl)(6-((R)-1-(4,4,4-trifluorobutanamido)ethyl)-1H-benzo[d]imidazol-2-yl)methyl)-1-isopropyl-1H-pyrazole-5-carboxamide] | > 100 | < 50 | > 100 | –
Cc1nonc1C(=O)N[C@H](c1nc2cc([C@@H](COC3CC3)NC(=O)C[C@H]3CC3(F)F)ccc2[nH]1)[C@@H](C)O[C@H](C)C(F)(F)F [Example 275, N-((1R,2R)-1-(5-((S)-2-Cyclopropoxy-1-(2-((S)-2,2-difluorocyclopropyl)acetamido)ethyl)-1H-benzo[d]imidazol-2-yl)-2-(((R)-1,1,1-trifluoropropan-2-yl)oxy)propyl)-4-methyl-1,2,5-oxadiazole-3-carboxamide] | 50 to 100 | 50 to 100 | – | –
CC(C)n1nccc1C(=O)N[C@H](c1nc2cc([C@@H](COC3CC3)NC(=O)CC3CC(F)(F)C3)ccc2[nH]1)[C@@H](C)O[C@@H](C)C(F)(F)F [Example 273, N-((1R,2R)-1-(5-((S)-2-Cyclopropoxy-1-(2-(3,3-difluorocyclobutyl)acetamido)ethyl)-1H-benzo[d]imidazol-2-yl)-2-(((S)-1,1,1-trifluoropropan-2-yl)oxy)propyl)-1-isopropyl-1H-pyrazole-5-carboxamide] | > 100 | < 50 | – | –
Cc1nonc1C(=O)N[C@H](c1nc2cc([C@@H](COC3CC3)NC(=O)CC3CC(F)(F)C3)ccc2[nH]1)[C@@H](C)OC(C)(C)C(F)(F)F [Example 271, N-((1R,2R)-1-(5-((S)-2-Cyclopropoxy-1-(2-(3,3-difluorocyclobutyl)acetamido)ethyl)-1H-benzo[d]imidazol-2-yl)-2-((1,1,1-trifluoro-2-methylpropan-2-yl)oxy)propyl)-4-methyl-1,2,5-oxadiazole-3-carboxamide] | 50 to 100 | < 50 | – | –
COC[C@H](NC(=O)CC1CC(F)(F)C1)c1ccc2nc([C@H](COC(C)(C)C(F)(F)F)NC(=O)c3nonc3C3CC3)[nH]c2c1 (relative stereo) [Example 164, 4-Cyclopropyl-N—((R)-1-(5-((R*)-1-(2-(3,3-difluorocyclobutyl)acetamido)-2-methoxyethyl)-1H-benzo[d]imidazol-2-yl)-2-((1,1,1-trifluoro-2-methylpropan-2-yl)oxy)ethyl)-1,2,5-oxadiazole-3-carboxamide] | < 50 | < 50 | < 50 | –
Cc1nonc1C(=O)N[C@H](c1nc2cc([C@@H](COC3CC3)NC(=O)CC3CC(F)(F)C3)ccc2[nH]1)[C@@H](C)O[C@@H](C)C(F)(F)F [Example 274, N-((1R,2R)-1-(5-((S)-2-Cyclopropoxy-1-(2-(3,3-difluorocyclobutyl)acetamido)ethyl)-1H-benzo[d]imidazol-2-yl)-2-(((S)-1,1,1-trifluoropropan-2-yl)oxy)propyl)-4-methyl-1,2,5-oxadiazole-3-carboxamide] | 50 to 100 | – | – | 50 to 100
Cc1nonc1C(=O)N[C@H](c1nc2cc([C@@H](COC3CC3)NC(=O)CC3CC(F)(F)C3)ccc2[nH]1)[C@@H](C)O[C@@H](C)C(F)(F)F [Example 272, N-((1R,2R)-1-(5-((S)-2-Cyclopropoxy-1-(2-(3,3-difluorocyclobutyl)acetamido)ethyl)-1H-benzo[d]imidazol-2-yl)-2-(((S)-1,1,1-trifluoropropan-2-yl)oxy)propyl)-4-methyl-1,2,5-oxadiazole-3-carboxamide] | > 100 | < 50 | – | –
C[C@@H](OC1CC1)[C@H](NC(=O)c1nonc1C1CC1)c1nc2cc([C@@H](COC3CC3)NC(=O)CC3CC(F)(F)C3)ccc2[nH]1 [Example 276, N-((1R,2R)-2-Cyclopropoxy-1-(5-((S)-2-cyclopropoxy-1-(2-(3,3-difluorocyclobutyl)acetamido)ethyl)-1H-benzo[d]imidazol-2-yl)propyl)-4-cyclopropyl-1,2,5-oxadiazole-3-carboxamide] | 50 to 100 | < 50 | – | –
Cn1nccc1C(=O)N[C@H](c1nc2cc(C(NC(=O)CCC(F)(F)F)C3CCC3)ccc2[nH]1)C1CCC(F)(F)CC1 (single isomer, unassigned) [Example 42, N—((S)-(5-((S*)-Cyclobutyl(4,4,4-trifluorobutanamido)methyl)-1H-benzo[d]imidazol-2-yl)(4,4-difluorocyclohexyl)methyl)-1-methyl-1H-pyrazole-5-carboxamide] | – | < 50 | > 100 | –
C[C@@H](NC(=O)CCC(F)(F)F)c1ccc2[nH]c([C@@H](NC(=O)c3ncnn3CCC(F)(F)F)C3CCC(F)(F)CC3)nc2c1 [Example 220, N—((S)-(4,4-Difluorocyclohexyl)(5-((R)-1-(4,4,4-trifluorobutanamido)ethyl)-1H-benzo[d]imidazol-2-yl)methyl)-1-(3,3,3-trifluoropropyl)-1H-1,2,4-triazole-5-carboxamide] | – | > 100 | 50 to 100 | –
C[C@@H](NC(=O)CCC(F)(F)F)c1ccc2[nH]c([C@@H](NC(=O)c3cnn4c3CCC4)C3CCC(F)(F)CC3)nc2c1 [Example 212, N—((S)-(4,4-Difluorocyclohexyl)(5-((R)-1-(4,4,4-trifluorobutanamido)ethyl)-1H-benzo[d]imidazol-2-yl)methyl)-5,6-dihydro-4H-pyrrolo[1,2-b]pyrazole-3-carboxamide] | – | > 100 | > 100 | –
C[C@@H](NC(=O)CCC(F)(F)F)c1ccc2[nH]c([C@@H](NC(=O)[C@@H]3C[C@H]3F)C3CCC(F)(F)CC3)nc2c1 [Example 100, (1S,2R)—N—((S)-(4,4-Difluorocyclohexyl)(5-((R)-1-(4,4,4-trifluorobutanamido)ethyl)-1H-benzo[d]imidazol-2-yl)methyl)-2-fluorocyclopropane-1-carboxamide] | – | > 100 | > 100 | –
C[C@@H](NC(=O)CCC(F)(F)F)c1ccc2[nH]c([C@@H](NC(=O)c3cnnn3CC(F)F)C3CCC(F)(F)CC3)nc2c1 [Example 38, N—[(S)-(4,4-Difluorocyclohexyl)-[6-[(1R)-1-(4,4,4-trifluorobutanoylamino)ethyl]-1H-benzimidazol-2-yl]methyl]-3-(2,2-difluoroethyl)triazole-4-carboxamide] | – | > 100 | > 100 | –

From patent publication US20240376085A1 (Janssen Pharmaceutica NV, priority 2021, published 2024)
